From patent EP0166355A2, “Substituted aminophenyl compounds and acylaminophenyl compounds and pharmaceutical compositions containing them” (Merck & Co., Inc., priority 1984, dated 1986)
Where two headings read alike, the source gives them in different places. Peptide text beside a SMILES is read from it. * marks the point of attachment. X1 = O=C(c1ccccc1)c1ccccc1N*; Cbz = O=C(OCc1ccccc1)*

Molecular target: T1, CCK receptor (Rattus norvegicus, UniProt P30551)
T1 construct: The whole pancreas was dissected free of fat tissue and was homogenized; from tissue; host or cells: rat whole pancreas membrane homogenate
T1 sequence (P30551 1-444): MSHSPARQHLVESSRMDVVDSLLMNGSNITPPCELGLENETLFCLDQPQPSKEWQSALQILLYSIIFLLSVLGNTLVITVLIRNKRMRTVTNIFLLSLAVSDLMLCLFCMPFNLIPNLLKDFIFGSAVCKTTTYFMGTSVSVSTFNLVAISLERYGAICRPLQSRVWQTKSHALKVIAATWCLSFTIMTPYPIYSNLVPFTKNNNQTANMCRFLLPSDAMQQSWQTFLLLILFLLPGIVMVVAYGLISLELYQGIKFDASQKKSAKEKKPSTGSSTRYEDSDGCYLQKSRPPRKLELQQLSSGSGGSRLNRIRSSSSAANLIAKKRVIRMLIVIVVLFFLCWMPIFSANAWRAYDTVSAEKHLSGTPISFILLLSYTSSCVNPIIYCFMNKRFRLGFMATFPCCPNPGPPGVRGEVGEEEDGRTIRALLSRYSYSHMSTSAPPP
Assay: CCK Receptor Binding (Pancreas), 125I-CCK-33
Parameters: species or system rats
Protocol: 1. CCK Receptor Binding (Pancreas)
CCK-33 was radiolabeled with ^125 I-Bolton Hunter reagent (2000 Ci/mmole) as described by Sankara et al. (J. Biol. Chem. 254: 9349-9351, 1979). Receptor binding was performed according to Innis and Snyder (Proc. Natl. Acad. Sci. 77: 6917-6921, 1980) with the minor modification of adding the additional protease inhibitors, phenylmethane sulfonyl fluoride and o-phenanthroline. The latter two compounds have no effect on the ^125I-CCK receptor binding assay.
Male Sprague-Dawley rats (200-350g) were sacrificed by decapitation. The whole pancreas was dissected free of fat tissue and was homogenized in 20 volumes of ice-cold 50 mM, Tris HC1 (pH 7.7 at 25°C) with a Brinkmann Polytron PT 10. The homogenates were centrifuged at 48,000 g for 10 min. Pellets were resuspended in Tris Buffer, centrifuged as above and resuspended in 200 volumes of binding assay buffer (50 mM Tris HC1, pH 7.7 at 25°C, 5 mM dithiothrietol, 0.1 mM bacitracin, 1.2 mM phenylmethane sulfonyl fluoride and 0.5 mM o-phenanthroline). For the binding assay, 25 µl of buffer (for total binding) or unlabeled CCK-8 sulfate to give a final concentration of lµM (for nonspecific binding) or the compounds of Formula I (for determination inhibition of 125I-CCK binding) and 25 ul of ^125 I-CCK-33 (30,000-40,000 cpm) were added to 450 µl of the membrane suspensions in microfuge tubes. All assays were run in duplicate or triplicate. The reaction mixtures were incubated at 37°C for 30 minutes and centrifuged in a Beckman Microfuge (4 minutes) immediately after adding 1 ml of ice-cold incubation buffer. The supernatant was aspirated and discarded, pellets were counted with a Beckman gamma 5000. For Scatchard analysis (Ann. N.Y. Acad. Sci. 51: 660, 1949), ^125I-CCK-33 was progressively diluted with increasing concentrations of CCK-33.

[1] = inhibition of 125I-CCK-33 binding, rat pancreas membranes, 37°C, 30 minutes; read-out: IC50(µM) ^125I-CCK Pancreas

O=C(NC(Cc1cccs1)C(=O)Nc1ccccc1C(=O)c1ccccc1F)c1ccsc1 (racemic) [Example 12, 2-N-(N^a-3-Thienoyl-DL-B-(2-thienyl)alanyl)amino 2'-fluorobenzophenone]
IC50 [1]: 1.3 µM

O=C(N[C@@H](CC1CNc2ccccc21)C(=O)Nc1ccc(Cl)cc1C(=O)c1ccccc1)c1ccsc1 (single isomer, unassigned) [Example 22B]
IC50 [1]: 2.2 µM

CC(C)(C)OC(=O)N[C@@H](Cc1c[nH]c2ccccc12)C(=O)Nc1ccc(Cl)cc1C(=O)c1ccccc1 [Example 2, 2-N-(N-a-Boc-L-tryptophanyl)amino-5-chlorobenzo phenone]
IC50 [1]: 0.74 µM

CC(C)(C)OC(=O)N[C@@H](Cc1c[nH]c2ccccc12)C(=O)Nc1ccccc1C(=O)c1ccccc1F [Example 3, 2-N-(N^a-Boc-L-tryptophanyl)amino-2'-fluorobenzo phenone]
IC50 [1]: 3.7 µM

CC(C)(C)OC(=O)N[C@@H](Cc1c[nH]c2ccccc12)C(=O)Nc1ccccc1C(=O)c1ccccc1 [Example 5, 2-N-(N^a-Boc-L-tryptophanyl)aminobenzophenone]
IC50 [1]: 4.8 µM

O=C(CCc1c[nH]c2ccccc12)Nc1ccc(Cl)cc1C(=O)c1ccccc1 [Example 13, 2-N-[3-(3'indolyl)propanoyl]amino-5-chlorobenzophenone]
IC50 [1]: 10 µM

O=C(N[C@@H](Cc1c[nH]c2ccccc12)C(=O)Nc1ccccc1C(=O)c1ccccc1)c1ccc(Cl)cc1 [Example 15, 2-N-(N^α-p-Chlorobenzoyl-L-tryptophanyl)aminobenzophenone]
IC50 [1]: 0.9 µM

CC(=O)N[C@@H](Cc1c[nH]c2ccccc12)C(=O)Nc1ccccc1C(=O)c1ccccc1 [Example 16, 2-N-(N^a-acetyl-L-tryptophanyl)aminobenzophenone]
IC50 [1]: 1 µM

O=C(N[C@@H](Cc1c[nH]c2ccccc12)C(=O)Nc1ccccc1C(=O)c1ccccc1)c1ccsc1 [Example 17, 2-N-(N^a-3-thienoyl-L-tryptophanyl)aminobenzophenone]
IC50 [1]: 0.19 µM

CC(C)(C)OC(=O)NCC(=O)N[C@@H](Cc1c[nH]c2ccccc12)C(=O)Nc1ccccc1C(=O)c1ccccc1 [Example 18, 2-N-(N^a-Boc-glycyl-L-tryptophanyl)aminobenzophenone]
IC50 [1]: 8 µM

CSCC[C@H](NC(=O)OC(C)(C)C)C(=O)NCC(=O)N[C@@H](Cc1c[nH]c2ccccc12)C(=O)Nc1ccccc1C(=O)c1ccccc1 [Example 19, 2-N-(N^a-Boc-L-methionyl-glycyl-L-tryptophanyl)aminobenzophenone]
IC50 [1]: 2.4 µM

CSCC[C@H](NC(=O)[C@H](Cc1ccc(O)cc1)NC(=O)OCc1ccccc1)C(=O)NCC(=O)N[C@@H](Cc1c[nH]c2ccccc12)C(=O)Nc1ccccc1C(=O)c1ccccc1 [Example 20, 2-N-(N^a-Benzyloxycarbonyl-L-tryosyl-L-methionyl-glycyl-L-tryptophanyl)aminobenzophenone] (Cbz-YMGW-X1)
IC50 (read-out: IC50(µM) ^125I-CCK Pancreas; inhibition of 125I-CCK-33 binding, rat pancreas membranes, 37°C, 30 minutes): 2 µM

O=C(N[C@@H](Cc1c[nH]c2ccccc12)C(=O)Nc1ccc(Cl)cc1C(=O)c1ccccc1)c1ccsc1 [Example 21, 2-N-(N^a-3-thienoyl-L-tryptophanyl)amino-5-chlorobenzophenone]
IC50 [1]: 0.4 µM
